Reference: article PMC9304322, “Targeting retinoic acid receptor alpha-corepressor interaction activates chaperone-mediated autophagy and protects against retinal degeneration” (Nature Communications, 2022)
“And” between values parts separate entries of the source, which are not always exact repeats. Equal values may be shown once.

Assays:
[1] = test system: NIH3T3; test: Intracellular proteolysis of long half-life proteins; format: cell-based, mouse
Protocol: Confluent cells were labelled with [^3H]leucine (2μCi/ml) (NEN-PerkinElmer Life Sciences) for 48 h and then extensively washed and maintained in medium with an excess of unlabeled leucine. Proteolysis was calculated from aliquots of the medium taken at different times and precipitated in trichloroacetic acid, as the amount of acid-precipitable radioactivity transformed to acid-soluble radioactivity at each time. Where indicated cell were treated during the chase with […] leupeptin (Sigma, #108975) and […] NH4Cl (to determine lysosomal degradation) or with 100 μm MRT 68921 dihydrochloride (Tocris, #5780) (to determine macroautophagy degradation).

[2] = test system: primary human fibroblast expressing the KFERQ-PS-Dendra reporter; test: CMA activity, KFERQ-PS-Dendra reporter in primary human fibroblasts; format: cell-based; design: key to CMA activity, mean (Fig. S2c): puncta per cell
Protocol: Cells were transduced with lentivirus carrying the KFERQ-PS-Dendra reporter as before. Cells were photoactivated by exposure to a 3.5 mA (current constant) light emitting diode (LED: Norlux, 405 nm) for 3 min and then plated in glass-bottom 96 well plates. At the desired times, cells were fixed with 4% PFA and imaged using high-content microscopy (Operetta system, Perkin Elmer). Images were quantified using the manufacturer’s software in a minimum of 1,200 cells in 9 independent fields per well. […] This was particularly important in the case of primary human cells where the efficiency of transduction was ~65%. To avoid confounding effects for drug-induced changes in cell volume or adherence to the plate that could bring a fraction of the cells per field outside of focus, we set a threshold to count only […] that have at least 1/10 of the average number of […] detected in the untreated wells for each cell type (3–4 puncta/cell in the case of NIH3T3 and N2a cells and 5 puncta/cell in primary human fibroblasts).

[3] = test system: NIH3T3 cells stably expressing the mCherry-GFP-LC3 reporter; test: Macroautophagy activity, mCherry-GFP-LC3 reporter; format: cell-based, mouse
Protocol: Cells were transduced with a lentiviral vector expressing mCherry-GFP-LC3[35], fixed and flux determined as the conversion of dual fluorescence puncta (autophagosomes) into only red fluorescent puncta (autolysosomes). Flux was also measured by immunoblot for LC3 in cells incubated for 6 h with 20 mM NH4Cl/100 μM leupeptin, by discounting the intensity of LC3 in non-treated cells from that in cells treated with the inhibitors.

[4] = test system: CMA network components in NIH3T3 cells; test: qPCR of CMA network components and CMA activation score; format: cell-based, mouse; design: LAMP2A mRNA level / HSP90AB1 mRNA level / HSP40 mRNA level / RAC1 mRNA level / AKT1 mRNA level / AKT2 mRNA level / CTSA mRNA level / NFATC1 mRNA level / HSC70 mRNA level / NCOR1 mRNA level / NFE2L2 mRNA level / RAB11A mRNA level / RARa mRNA level / HSP90AA1 mRNA level / EEF1A1 mRNA level / RICTOR mRNA level: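 fold of untreated cells after 20 µM for 24 h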; key to CMA activation score: weighted (LAMP-2A ×2), directed (±1) average of CMA network expression;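 for AKT1 mRNA level: fold of untreated cells after 20 µM for 24 h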;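 for AKT2 mRNA level: fold of untreated cells after 20 µM for 24 h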;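 for CTSA mRNA level: fold of untreated cells after 20 µM for 24 h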;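 for HSC70 mRNA level: fold of untreated cells after 20 µM for 24 h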;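 for HSP40 mRNA level: fold of untreated cells after 20 µM for 24 h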;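 for HSP90AA1 mRNA level: fold of untreated cells after 20 µM for 24 h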;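 for HSP90AB1 mRNA level: fold of untreated cells after 20 µM for 24 h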;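 for LAMP2A mRNA level: fold of untreated cells after 20 µM for 24 h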;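 for NCOR1 mRNA level: fold of untreated cells after 20 µM for 24 h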;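 for NFATC1 mRNA level: fold of untreated cells after 20 µM for 24 h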;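 for NFE2L2 mRNA level: fold of untreated cells after 20 µM for 24 h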;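 for PHLPP1 mRNA level: fold of untreated cells after 20 µM for 24 h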;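 for RAB11A mRNA level: fold of untreated cells after 20 µM for 24 h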;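 for RAC1 mRNA level: fold of untreated cells after 20 µM for 24 h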;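 for RARa mRNA level: fold of untreated cells after 20 µM for 24 h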
Protocol: RNA was extracted from individual retinas or tissue sections (brain, liver). Total RNA from retinas was extracted using TRIzol Reagent (Invitrogen, # 15596-018), and reverse transcription was performed using the High-Capacity cDNA Reverse Transcription Kit (Applied Biosystems, # 4374966) according to the manufacturer’s instructions. Quantitative real-time PCR was performed in a Light Cycler 480 Instrument (Roche) with Taqman LightCycler 480 probes Master Mix (Roche, #4887301001) using Taqman assays (Life Technologies). For cells in culture, RNA was extracted using RNeasy Plus Mini Kit (Qiagen, #74034), and reverse transcription was performed using Superscript III (Invitrogen, #18080051). Quantitative RT-PCR analysis were performed using Power SYBR Green PCR Master Mix (Applied Biosystems, #4368708) on a StepOne Plus Real-Time PCR System (Applied Biosystems). Mm01184405_m1 probe (Thermofisher) was used for rhodopsin and the sequence of all the other probes used for qPCR is included in Supplementary Table 2.
CMA index[14] was calculated using data set from[23]–[25]. Briefly, each element of the CMA network[13] has attributed a weight. As LAMP-2A is the rate-limiting component of CMA, it was given a weight of 2. Every other element received a weight of 1. Then, every element was attributed direction score that is +1 or −1 based on the known effect of a given element on CMA activity. The score was then calculated as the weighted/ directed average of expression counts of every element of the CMA network.

[5] = Pharmacokinetic analysis, plasma and brain;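 for Fig. 3a level, single animals 1-3: plasma concentration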;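 for Fig. 3b level, single animals 1-3: brain concentration in ng/g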; format: in vivo, ICR (CD-1) male mice; design: Fig. 3a level, single animals 1-3 / Fig. 3b level, single animals 1-3: unit not given here
[6] = c0 = 2 (axis unlabelled; ANOVA calls row factor Time)
[7] = Fig. 2d (left), individual replicate values, one sample t test

CC(=O)Nc1ccc(C2=Nc3ccc(Cl)cc3OC2)cc1 [CA77]
duration of the increase in degradation of long-lived proteins ([1]; NIH3T3, 10 μM): remained upregulated 24 h | Lysosomal proteolysis, Mean (Fig. S3c) ([1]; Time 6): 3.76 | Lysosomal proteolysis, Mean (Fig. S3c) ([1]; Time 12): 7.75 | CMA activity, mean (Fig. S2c) ([2]; concentration 0.02): 27.1536 | CMA activity, mean (Fig. S2c) ([2]; concentration 0.2): 22.1247 | CMA activity, mean (Fig. S2c) ([2]; concentration 2): 23.6319 | CMA activity, mean (Fig. S2c) ([2]; concentration 5): 30.8194 | CMA activation in human cells ([2]; in words): efficiently activated CMA | effect on macroautophagy ([3]; NIH3T3, MRT-sensitive proteolysis, LC3-II flux, mCherry-GFP-LC3 reporter): did not have the inhibitory effect on macroautophagy | APG (Fig. S3e) [3, 6]: 3.899 | AUT (Fig. S3e) [3, 6]: 0.5811 | AV (Fig. S3e) [3, 6]: 4.481 | APG (Fig. S3e) ([3]; c0 = 5 (axis unlabelled)): 3.275 | AUT (Fig. S3e) ([3]; c0 = 5 (axis unlabelled)): 0.7542 | AV (Fig. S3e) ([3]; c0 = 5 (axis unlabelled)): 4.029 | APG (Fig. S3e) ([3]; c0 = 10 (axis unlabelled)): 2.43 | AUT (Fig. S3e) ([3]; c0 = 10 (axis unlabelled)): 3.694 | AV (Fig. S3e) ([3]; c0 = 10 (axis unlabelled)): 6.1244 | APG (Fig. S3e) ([3]; c0 = 15 (axis unlabelled)): 2.828 | AUT (Fig. S3e) ([3]; c0 = 15 (axis unlabelled)): 3.073 | AV (Fig. S3e) ([3]; c0 = 15 (axis unlabelled)): 5.901 | APG (Fig. S3e) ([3]; c0 = 20 (axis unlabelled)): 2.044 | AUT (Fig. S3e) ([3]; c0 = 20 (axis unlabelled)): 3.746 | AV (Fig. S3e) ([3]; c0 = 20 (axis unlabelled)): 5.79 | APG (Fig. S3e) ([3]; c0 = 25 (axis unlabelled)): 2.063 | AUT (Fig. S3e) ([3]; c0 = 25 (axis unlabelled)): 4.0642 | AV (Fig. S3e) ([3]; c0 = 25 (axis unlabelled)): 6.127 | APG (Fig. S3e) ([3]; c0 = 30 (axis unlabelled)): 2.895 | AUT (Fig. S3e) ([3]; c0 = 30 (axis unlabelled)): 3.5777 | AV (Fig. S3e) ([3]; c0 = 30 (axis unlabelled)): 6.473 | APG (Fig. S3e) ([3]; c0 = 40 (axis unlabelled)): 2.857 | AUT (Fig. S3e) ([3]; c0 = 40 (axis unlabelled)): 3.822 | AV (Fig. S3e) ([3]; c0 = 40 (axis unlabelled)): 6.679 | APG (Fig. S3e) ([3]; c0 = 50 (axis unlabelled)): 4.838 | AUT (Fig. S3e) ([3]; c0 = 50 (axis unlabelled)): 2.082 | AV (Fig. S3e) ([3]; c0 = 50 (axis unlabelled)): 6.9193 | AKT1 mRNA level [4, 7]: 1.86 and 1.18 and 1.20 and 0.75 and 0.97 and 1.87 and 1.39 | AKT2 mRNA level [4, 7]: 1.39 and 1.17 and 1.12 and 0.66 and 1.01 and 1.53 and 1.20 | CTSA mRNA level [4, 7]: 1.67 and 1.46 and 1.22 and 0.88 and 1.08 and 1.45 | EEF1A1 mRNA level [4, 7]: 1.15 and 1.98 and 1.39 and 1.19 and 1.55 | HSC70 mRNA level [4, 7]: 1.44 and 1.49 and 1.28 and 0.82 and 1.24 and 1.57 | HSP40 mRNA level [4, 7]: 0.73 and 0.99 and 0.82 and 0.53 and 0.77 and 1.06 | HSP90AA1 mRNA level [4, 7]: 1.50 and 0.94 and 0.92 and 0.76 and 0.78 and 0.87 and 0.90 | HSP90AB1 mRNA level [4, 7]: 1.21 and 0.89 and 0.79 and 0.62 and 0.81 and 0.82 and 0.83 | LAMP2A mRNA level [4, 7]: 1.32 and 1.55 and 1.43 and 1.87 and 2.34 and 2.75 and 2.33 | NCOR1 mRNA level [4, 7]: 2.35 and 1.24 and 0.55 and 0.97 and 2.06 and 1.85 | NFATC1 mRNA level [4, 7]: 2.10 and 1.29 and 1.23 and 0.50 and 0.73 and 1.05 and 1.18 | NFE2L2 mRNA level [4, 7]: 1.29 and 1.15 and 1.04 and 0.89 and 0.77 and 1.26 | PHLPP1 mRNA level [4, 7]: 2.13 and 1.55 and 1.38 and 2.29 and 1.20 and 1.48 and 1.51 | RAB11A mRNA level [4, 7]: 1.15 and 0.97 and 0.81 and 0.59 and 0.79 and 0.89 and 1.07 | RAC1 mRNA level [4, 7]: 0.89 and 1.51 and 1.36 and 1.27 and 1.10 and 1.63 and 1.34 | RARa mRNA level [4, 7]: 1.23 and 0.87 and 0.82 and 0.27 and 1.06 and 2.06 and 1.10 | RICTOR mRNA level [4, 7]: 0.96 and 1.28 and 0.65 and 0.74 and 1.53 and 1.63 | CMA activation score ([4]; Fig. 2d (right), individual replicate values): 0.1487 and -0.2323 and 0.1868 and 0.1591 | predicted CMA score compared to AR7 ([4]; NIH3T3, 20μM for 24 h): higher | Fig. 3a level, single animals 1-3 ([5]; IV, Time 0.083 h): 52.9 and 41.4 and 14.2 | Fig. 3b level, single animals 1-3 ([5]; IV, Time 0.083 h): 3773 and 2943 and 693 | predicted brain concentration ([5]; intraperitoneal 30 mg/kg bw, converted from Cmax or AUC (CA39: AUC and extended half-life)): 5 to 20 µM
